Structures are written as SMILES. Marks after values point to notes of the source that are not given here.

The source of these data is patent publication US12194021B2, “Modified herbal compositions for neuromodulation” (University of Southern California, priority 2021, dated 2025).

The subject of one data set is GABAARs. Briefly: Whole-cell voltage-clamped recordings from hippocampal DGCs in slices (Itonic, mIPSCs). Particulars: for GABAergic Itonic: basal Itonic 20 pA. The format is cell-based, rats. From the text: 2) Whole-Cell Patch-Clamp Recordings from Brain Slices. Transverse slices (400 lm) of dorsal hippocampus were obtained from wt and TG-SwDI mice (male, 20 months old) using a vibratome (VT 100; Technical Products International). Slices were perfused continuously with artificial CSF (ACSF) composed of the following (in mM): 125 NaCl, 2.5 KCl, 2 CaCl2, 2 MgCl2, 26 NaHCO3, and 10 D-glucose. The ACSF was bubbled continuously with 95% O2/5% CO2 to ensure adequate oxygenation of slices and a pH of 7.4 and kept at 34±0.5° C. for perfusion. TTX (0.5 μM), APV (40 μM), CNQX (10 μM), and CGP54626 (1 μM, GABABR antagonist) were added to ACSF to pharmacologically isolate GABAAR-mediated mIPSCs. Patch electrodes were filled with internal solution containing the following (in mM): 137 CsCl, 2 MgCl2, 1 CaCl2, 11 EGTA, 10 HEPES, and 3 ATP, pH adjusted to 7.30 with CsOH. Recordings targeted dentate gyms granule cells (DGCs) of hippocampal slices. Voltage-clamp whole-cell recording was performed using a patch clamp amplifier 3) EPM: All animals were tested anxiety levels on EPM. Animals were placed on the central area of the maze, tested for 5 min and video recorded. The following measures were scored: number of entries into open arms, closed arms, or center platform and time spent in each of these areas. Data were reported as % of number of entries in arms, % of time spent in different entries, and number of total entries.
To evaluate whether DHM-Piperidine Complex (D-P) can still potentiate GABAARs, whole-cell voltage-clamped recordings from hippocampal DGCs in slices were performed to test D-P and compared with DHM effects on GABAergic tonic current (Itonic) and miniature inhibitory postsynaptic currents (mIPSCs). […] Compared with DHM enhancing GABAergic Itonic from 20 pA (basal Itonic)→28 pA→31 pA→52 pA→55 pA, D-P enhancing GABAergic Itonic from 20 pA (basal Itonic)→35 pA→42 pA →65 pA→70 pA (Table 1).

The test system of a further data set is gephyrin. Conditions: previously reported (Liang et al., 2014); cited from earlier work.
Data set [1] is described as follows: Anecdotal test of effects on sleep. The method, then:
We did an Anecdotal Test of the Effects of DHM on Sleep. […] They were given combination-formula (Comb-D, 1 serving size), DHM (250 mg), or melatonin (10 mg). After a week, we started collecting their reported sleep duration.

A further data set relates to mice. Kind of data set: Elevated plus maze (EPM), anxiolytic effect of combination form. The class given is in vivo. Conditions: 45 min after oral administration, comb 0.5, 1, 2 serving size, diazepam 2 mg/kg. The procedure: Alternatively, the elevated plus maze for mice can consist of two opposing open (24×8 cm) and two enclosed arms (24×8×25 cm) connected by a central platform forming the shape of a plus sign. The dimensions of the central field which connects the open and closed arms are 8×8 cm. The plus maze was elevated to a height of 50 cm. Each mouse was immediately placed in the central square of the apparatus with the head facing one of the closed arms. Mice behavior during 5 min was observed and recorded by means of a video camera (Canon Digital, Japan), which was fixed to the wall above the elevated plus maze. In this test, the following parameters were detected and calculated: the number of entries (open arm entries and closed arm entries), % of open arm entries, and % of time spent in open arms.
Anxiolytic effect evaluation of combination form (comb). A characteristic of the anxiolytic effects of comb (0.5, 1, and 2 serving size) was evaluated by elevated plus maze (EPM) tests (Table 3; FIG. 6). The EPM is considered an etiologically valid assessment of anxiolytic/anxiety in rodents because it uses natural stimuli (fear of a novel, brightly lit open space, and fear of balancing on a relatively narrow, raised platform) to determine anxiety-like behavior in animals. Anxiolytics are known to exert their pharmacological action by causing an increase in GABAergic neurotransmission in the brain.
Statistical analysis: one-way ANOVA, followed by Holm-Sidak post hoc comparison. […] Data were expressed as the means ±SEM, (n=7/group) percentage of open arm entries or of time spent on open arms in mice given a 5-min test, 45 min after oral administration of comb (0.5, 1, 2 serving size), or vehicle.

`O=C1c2c(O)cc(O)cc2O[C@H](c2cc(O)c(O)c(O)c2)[C@H]1O` [DHM, dihydromyricetin, reference compound]: in the data set on GABAARs (0.1 μM), the “Itonic, percent in brackets (increase over basal)” value is on record as “(40%)*”; the “mIPSCs (area potentiated)” value stood at 5.0%; the “GABAergic Itonic” value came to 28 pA. In addition, in the data set with GABAARs (0.3 μM), the “Itonic, percent in brackets (increase over basal)” value is recorded as “(55%)*”; the “mIPSCs (area potentiated)” value is given as 13.3%*; the “GABAergic Itonic” value was 31 pA. In the data set on GABAARs (1 μM), the “Itonic, percent in brackets (increase over basal)” value is on record as “(160%)*”; the “mIPSCs (area potentiated)” value came to 58.3%*; the “GABAergic Itonic” value is given as 52 pA. Also, in the data set on GABAARs (10 μM), the “Itonic, percent in brackets (increase over basal)” value is “(175%)*”; the “mIPSCs (area potentiated)” value was found to be 53.3%*; the “GABAergic Itonic” value came out at 55 pA. In addition, the “GABAergic inhibitory transmission / gephyrin in TG mouse models” value in the data set on gephyrin was “restores impaired GABAergic inhibitory transmission”. Further, in data set [1] (250 mg oral daily), the “sleep duration (average)” value came out at 5.5±0.65 and the “start of improvement of sleep” value fell in the range of 1 to 7 days. In addition, the “dependence after finishing three-month test” value in data set [1] is “without dependence”.

For the molecule `CN1C(=O)CN=C(c2ccccc2)c2cc(Cl)ccc21` [diazepam], in the data set with mice, the “number of closed arm entries” value was “little effect” and the “total number of arm entries” value is “significantly increased”. Further, in the data set on mice (p<0.01), the “percentage of open arm entries” value was “significantly elevated”.

As to `COc1ccc2[nH]cc(CCNC(C)=O)c2c1` [melatonin], in data set [1] (10 mg oral daily), the “complaints (discomfort)” value is “dizziness on the second day, loss of energy, and other feelings of discomfort”; the “time to show improvement in sleep” value is “took a month”. The “sleep duration (average)” value in data set [1] (10 mg oral daily, in 40% attendees) was 4.3 ± 0.9 h. Further, the “dependence after finishing three-month test” value in data set [1] is reported as “suffered withdrawal from the test”.
